Source: patent US20100285959A1, “HERBICIDAL MIXTURES” (priority 2006, published 2010)

How the values were obtained:
wild oat (AVEFA) = assay: Test 4 field trial, postemergence; assay type: in vivo, Avena fatua; set-up: scale not given here
Description: (§1) A field trial was conducted to evaluate the effects of mixtures of Compound 2 with commercial herbicides on spring wheat (TRZAS, Triticum aestivum L.) and several weed species. Wheat seeds (cv. ‘AC Intrepid’) were planted in late spring season, 3.8 cm deep in a loam soil having 2.7% organic matter and a pH of 7. Plots were 6 m long by 2.5 m wide. The field was managed using no-till practices. The plots were arranged in a randomized complete block design with each treatment being replicated four times. Treatments were applied postemergence 25 days after planting using a backpack sprayer delivering a spray volume of 55 L/ha using a pressure of 276 kPa. […] Compound 2 and clodinafop treatments, alone and in combination, also included a surfactant. Weed species present in the experimental plots in sufficient quantity to be evaluated included wild oat (AVEFA, Avena fatua L.), common lambsquarters (CHEAL, Chenopodium album L.), kochia (KCHSC, Kochia scoparia (L.) Schrad.), wild buckwheat (POLCO, Polygonum convolvulus L.), Russian thistle (SASKR, Salsola kali L. ssp. ruthenica (Iljin) Soo), and field pennycress (THLAR, Thlaspi arvense L.). […] Common lambsquarters was evaluated only at 14 days after application. […] Results are the means of the four replicates.

[1] = system: common lambsquarters (CHEAL); assay: Test 4 field trial, postemergence; assay type: in vivo, Chenopodium album; conditions: 14 DAA
wild buckwheat (POLCO) = assay: Test 4 field trial, postemergence; assay type: in vivo, Polygonum convolvulus
Description: as §1

Russian thistle (SASKR) = assay: Test 4 field trial, postemergence; assay type: in vivo, Salsola kali; set-up: scale not given here
Description: as §1

[2] = system: common lambsquarters (CHEAL); assay: Test 25 field trial, postemergence, growth as percent of control; assay type: in vivo, Chenopodium album
Text: Corn seeds (hybrid ‘Pioneer 31G96 RR’) were planted in mid spring season, 3.8 cm deep in a clay loam soil having 2% organic matter and a pH of 6.6. Plots were 6.1 m long by 3.0 m wide with rows spaced 76 cm apart. Seeds were spaced 15 cm apart within the rows. The field was managed using conventional tillage practices. […] Giant ragweed and Pennsylvania smartweed could only be evaluated 14 days after application. […] Results are the means of the three replicates. This growth inhibition data was converted to results in the form of “plant growth as a percent of control plant growth” using the calculation “100 minus growth inhibition”.
When this form of Colby's Equation is used, if the observed effects on weeds are less than the expected values, the mixture is synergistic.

corn (ZEAMD) = assay: Test 26 field trial, postemergence; assay type: in vivo, Zea mays ssp. indentata; set-up: scale not given here
Text: (§2) Corn seeds (hybrid ‘Pioneer 31G96’) were planted in mid spring season, 3.8 cm deep in a silt loam soil having 2% organic matter and a pH of 6.6. Plots were 6.1 m long by 3.0 m wide with rows spaced 76 cm apart. Seeds were spaced 15 cm apart within the rows. The field was managed using conventional tillage practices. […] All treatments also included a surfactant. […] Some of the weed species could not be evaluated at every timing. […] Results are the means of the three replicates.

jimsonweed (DATST) = assay: Test 26 field trial, postemergence; assay type: in vivo, Datura stramonium; conditions: 28 DAA
Text: as §2

giant foxtail (SETFA) = assay: Test 26 field trial, postemergence; assay type: in vivo, Setaria faberi; set-up: scale not given here
Text: as §2

wheat (TRZAW) = assay: Test 28 greenhouse, post- and preemergence; assay type: in vivo, Triticum aestivum; conditions: 26 DAA
Description: A greenhouse test was conducted to evaluate the effects on the plant species corn (ZEAMD, Zea mays ssp. indentata), sorghum (SORVU, Sorghum vulgare L.), dry-seeded rice (ORYSA, Oryza sativa L.), wheat (TRZAW, Triticum aestivum L.), ivyleaf morningglory (IPOHE, Ipomoea hederacea (L.) JACQ.), and barnyardgrass (ECHCG, Echinochloa crus-galli (L.) P. BEAUV.), of mixtures of Compound 2 with isoxadifen-ethyl. Corn, sorghum, rice, wheat, ivyleaf morningglory and barnyardgrass seeds were planted in RediEarth, a commercial potting medium. […] Corn plants were treated postemergence at the V2 growth stage, and sorghum, rice, wheat, ivyleaf morningglory, and barnyardgrass plants were treated postemergence at the 3-leaf stage. […] Each treatment was replicated three times. […] Plants were watered as needed.

velvetleaf (ABUTH) [3] = assay: Test 16 greenhouse, post- and preemergence; conditions: 15 DAA
velvetleaf (ABUTH) [4] = assay: Test 18 greenhouse, post- and preemergence; conditions: 15 DAA
[5] = 14 DAA, Cpd 2 30 g a.i./ha alone or with clodinafop 56 or fenoxaprop 90
[6] = 14 DAA, Cpd 2 60 g a.i./ha alone or with clodinafop 56 or fenoxaprop 90
[7] = 35 DAA, Cpd 2 30 g a.i./ha alone or with clodinafop 56 or fenoxaprop 90
[8] = 35 DAA, Cpd 2 60 g a.i./ha alone or with clodinafop 56 or fenoxaprop 90

Compound: COC(=O)c1nc(C2CC2)nc(N)c1Cl [Compound 2, methyl 6-amino-5-chloro-2-cyclopropyl-4-pyrimidinecarboxylate]
- AVEFA Obs (wild oat (AVEFA); [5]): 0
- AVEFA Obs (wild oat (AVEFA); [6]): 0
- AVEFA Obs (wild oat (AVEFA); [7]): 0
- AVEFA Obs (wild oat (AVEFA); [8]): 0
- AVEFA Obs (wild oat (AVEFA); 55 DAA, Cpd 2 30 g a.i./ha alone or with clodinafop 56 or fenoxaprop 90): 0
- AVEFA Obs (wild oat (AVEFA); 55 DAA, Cpd 2 60 g a.i./ha alone or with clodinafop 56 or fenoxaprop 90): 0
- CHEAL Obs ([1]; Cpd 2 30 g a.i./ha alone or with clodinafop 56 or fenoxaprop 90): 83
- CHEAL Obs ([1]; Cpd 2 60 g a.i./ha alone or with clodinafop 56 or fenoxaprop 90): 92
- POLCO Obs (wild buckwheat (POLCO); [5]): 61
- POLCO Obs (wild buckwheat (POLCO); [6]): 63
- POLCO Obs (wild buckwheat (POLCO); [7]): 51
- POLCO Obs (wild buckwheat (POLCO); [8]): 55
- SASKR Obs (Russian thistle (SASKR); [5]): 88
- SASKR Obs (Russian thistle (SASKR); [6]): 91
- SASKR Obs (Russian thistle (SASKR); [7]): 99
- SASKR Obs (Russian thistle (SASKR); 35 DAA, Cpd 2 60 g a.i./ha alone): 95
- CHEAL Obs (percent of control) ([2]; Cpd 2 15 g a.i./ha, 14 DAA): 15%
- CHEAL Obs (percent of control) ([2]; Cpd 2 15 g a.i./ha, 28 DAA): 2%
- CHEAL Obs (percent of control) ([2]; Cpd 2 15 g a.i./ha, 56 DAA): 0%
- CHEAL Obs (percent of control) ([2]; Cpd 2 30 g a.i./ha, 14 DAA): 20%
- CHEAL Obs (percent of control) ([2]; Cpd 2 30 g a.i./ha, 28 DAA): 1%
- CHEAL Obs (percent of control) ([2]; Cpd 2 30 g a.i./ha, 56 DAA): 0%
- CHEAL Obs (percent of control) ([2]; Cpd 2 45 g a.i./ha, 14 DAA): 7%
- CHEAL Obs (percent of control) ([2]; Cpd 2 45 g a.i./ha, 28 DAA): 0%
- CHEAL Obs (percent of control) ([2]; Cpd 2 45 g a.i./ha, 56 DAA): 0%
- ZEAMD Obs (corn (ZEAMD); 14 DAA, 30 g a.i./ha): 0
- ZEAMD Obs (corn (ZEAMD); 14 DAA, 45 g a.i./ha): 2
- ZEAMD Obs (corn (ZEAMD); 14 DAA, 60 g a.i./ha): 7
- ZEAMD Obs (corn (ZEAMD); 28 DAA, 30 g a.i./ha): 2
- ZEAMD Obs (corn (ZEAMD); 28 DAA, 45 g a.i./ha): 3
- ZEAMD Obs (corn (ZEAMD); 28 DAA, 60 g a.i./ha): 5
- ZEAMD Obs (corn (ZEAMD); 56 DAA, 30 g a.i./ha): 0
- ZEAMD Obs (corn (ZEAMD); 56 DAA, 45 g a.i./ha): 0
- ZEAMD Obs (corn (ZEAMD); 56 DAA, 60 g a.i./ha): 7
- DATST Obs (jimsonweed (DATST); 30 g a.i./ha): 100
- DATST Obs (jimsonweed (DATST); 45 g a.i./ha): 100
- DATST Obs (jimsonweed (DATST); 60 g a.i./ha): 100
- SETFA Obs (giant foxtail (SETFA); 28 DAA, 30 g a.i./ha): 98
- SETFA Obs (giant foxtail (SETFA); 28 DAA, 45 g a.i./ha): 97
- SETFA Obs (giant foxtail (SETFA); 28 DAA, 60 g a.i./ha): 99
- SETFA Obs (giant foxtail (SETFA); 56 DAA, 30 g a.i./ha): 50
- SETFA Obs (giant foxtail (SETFA); 56 DAA, 45 g a.i./ha): 73
- SETFA Obs (giant foxtail (SETFA); 56 DAA, 60 g a.i./ha): 70
- TRZAW Obs (wheat (TRZAW); postemergence, Cpd 2 32 g a.i./ha): 80%
- TRZAW Obs (wheat (TRZAW); postemergence, Cpd 2 64 g a.i./ha): 90%
- TRZAW Obs (wheat (TRZAW); preemergence, Cpd 2 32 g a.i./ha): 0%
- TRZAW Obs (wheat (TRZAW); preemergence, Cpd 2 64 g a.i./ha): 27%
- Obs response, scale 0 to 100 (velvetleaf (ABUTH) [3]; Postemergence, 15 g a.i./ha): 33
- Obs response, scale 0 to 100 (velvetleaf (ABUTH) [3]; Postemergence, 30 g a.i./ha): 38
- Obs response, scale 0 to 100 (velvetleaf (ABUTH) [3]; Postemergence, 45 g a.i./ha): 61
- Obs response, scale 0 to 100 (velvetleaf (ABUTH) [3]; Preemergence, 15 g a.i./ha): 23
- Obs response, scale 0 to 100 (velvetleaf (ABUTH) [3]; Preemergence, 30 g a.i./ha): 38
- Obs response, scale 0 to 100 (velvetleaf (ABUTH) [3]; Preemergence, 45 g a.i./ha): 42
- Postemergence ABUTH Obs (velvetleaf (ABUTH) [4]; alone at 15 g a.i./ha): 39
- Preemergence ABUTH Obs (velvetleaf (ABUTH) [4]; alone at 15 g a.i./ha): 16
- Postemergence ABUTH Obs (velvetleaf (ABUTH) [4]; alone at 30 g a.i./ha): 58
- Preemergence ABUTH Obs (velvetleaf (ABUTH) [4]; alone at 30 g a.i./ha): 26
- Postemergence ABUTH Obs (velvetleaf (ABUTH) [4]; alone at 45 g a.i./ha): 67
- Preemergence ABUTH Obs (velvetleaf (ABUTH) [4]; alone at 45 g a.i./ha): 28
